SMILES strings stand for the structures.

The nature of assay [1]: Serum hypolipidemic activity in vivo: lowering of serum cholesterol and triglycerides in rats. Further details: species or system male rats COBS, CD, SD strain. Particulars: oral, 0.1% by weight in diet, 5 days, vs control animals. The protocol: (§1) The compounds of the present invention were assayed for two types of biological activity related to their potential use as antiatherosclerotic agents. Compounds were tested in vitro for their ability to inhibit the enzymes fatty acyl CoA:cholesterol acyl transferase (ACAT) and in vivo for serum hypolipidemic activity as measured by their ability to inhibit lipid absorption in rats. The compounds were tested for their ability to inhibit ACAT according to the following procedure:
The compounds were also tested for their ability to lower lipid levels in mammals. The compounds were administered orally admixed with diet (0.1% by weight) to groups of four male rats COBS, CD, SD strain from Charles River Breeding Laboratories, Inc, Wilmington, Mass. A control group of eight rats was maintained on the diet alone; test groups were maintained on the diet plus 0.1% of test compounds by weight. After 5 days treatment, serum cholesterol and triglyceride concentrations were determined by direct enzymatic procedures using a Centrifichem® System 400 autoanalyzer (Union Carbide Co.). Cholesterol concentrations were determined by the combined cholesterol esterase-cholesterol oxidase procedure of Roelschlau et. al., Zeit. Klin. Chem. Lkin. Biochem., 12, 226 (1974). Triglycerides were determined by the combined method of lipase catalyzed hydrolysis of triglycerides to glycerol and free fatty acids [Bucolo, G. and David, H., Clin. Chem. 19, 476 (1973)] and Wahlefeld, A. W., in "Methods of Enzymatic Analysis", Vol. 4, Bergmeyer, H. U., Editor, Academic Press, New York, N.Y. (1974), pp. 1831-1835 and the enzymatic oxidation of the glycerol which leads to the production of colored formazan [Stavropoulos, W. S. and Crouch, R. D., Clin. Chem., 20, No. 7, 857 (1974)]. […] Compounds which produce statistically significant lowering of either sterol or triglycerides are considered to be active.

For assay [2], the target named is T1, fatty acyl CoA:cholesterol acyl transferase (ACAT) (Rattus norvegicus, UniProt O70536).
T1 construct: Rat adrenals were homogenized in 0.2M monobasic potassium phosphate buffer; from tissue; host or cells: rat adrenals, 1000 x g supernatant of the homogenate containing the microsomal fraction
T1 sequence (O70536 1-545): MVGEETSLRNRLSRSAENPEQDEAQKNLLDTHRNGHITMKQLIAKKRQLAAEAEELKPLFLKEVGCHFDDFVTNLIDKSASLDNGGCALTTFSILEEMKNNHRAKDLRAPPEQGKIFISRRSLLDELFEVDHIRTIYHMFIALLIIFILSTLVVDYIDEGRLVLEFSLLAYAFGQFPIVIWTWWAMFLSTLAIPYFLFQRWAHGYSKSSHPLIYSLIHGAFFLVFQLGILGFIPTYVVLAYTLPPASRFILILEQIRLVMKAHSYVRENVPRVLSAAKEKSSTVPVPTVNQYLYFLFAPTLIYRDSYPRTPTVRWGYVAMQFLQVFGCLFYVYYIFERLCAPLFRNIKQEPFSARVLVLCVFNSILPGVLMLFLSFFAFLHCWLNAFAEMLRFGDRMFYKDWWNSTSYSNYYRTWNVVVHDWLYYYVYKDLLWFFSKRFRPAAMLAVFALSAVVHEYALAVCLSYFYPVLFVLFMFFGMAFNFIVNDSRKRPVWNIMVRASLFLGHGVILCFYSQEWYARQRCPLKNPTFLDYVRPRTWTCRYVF
The assay is described as follows: Inhibition of fatty acyl CoA:cholesterol acyl transferase (ACAT) in vitro (rat adrenal supernatant, oleoyl CoA-14C). Format: biochemical. To be noted: final concentration 5.2 μg./ml., 37° C.; for inhibition at 5.2 µg/mL: pH 7.4, rat adrenal supernatant; for % Inhibition (ACAT): rat adrenal supernatant, pH 7.4. Here is the method: as §1
Rat adrenals were homogenized in 0.2M monobasic potassium phosphate buffer, pH 7.4, and centrifuged at 1000 times gravity for 15 minutes at 5° C. The supernatant, containing the microsomal fraction, served as the source of the cholesterol-esterifying enzyme, fatty acyl CoA:cholesterol acyl transferase (ACAT). A mixture comprising 50 parts of adrenal supernatant, 10 parts of albumin (BSA) (50 mg./ml.), 3 parts of test compound (final concentration 5.2 μg./ml.) and 500 parts of buffer was preincubated at 37° C. for 10 minutes. After treatment with 20 parts of oleoyl CoA(^14 C-0.4 μCi) the mixture was incubated at 37° C. for 10 minutes. A control mixture, omitting the test compound, was prepared and treated in the same manner. The lipids from the incubation mixture were extracted into an organic solvent and separated by thin-layer chromatography. The cholesteryl ester fraction was counted in a scintillation counter. This procedure is a modification of that described by Hashimoto, et al., Life Scie., 12 (Part II), 1-12 (1973).

The term inhibition denotes the percentage by which the read-out fell short of the control. A low value points to little suppression. In the case of `C[Si](C)(C)CCCNc1ccc(C(=O)O)cc1` [4-[3-(Trimethylsilyl)propylamino]benzoic acid], in assay [1], the “% Lowering of Serum Sterol” value was 18% and the “% Lowering of Serum Triglycerides” value is listed as 53%. Further, the inhibition at 5.2 µg/mL in assay [2] was 12%.
In the same order, the values of `C[Si](C)(C)CCCCCCCCCCCNc1ccc(C(=O)O)cc1` [4-[11-(Trimethylsilyl)undecylamino]benzoic acid] are 56%, 75% and 57%.
Take `C[Si](C)(C)CCCCCCCCCCCCCCNc1ccc(C(=O)O)cc1` [4-[14-(Trimethylsilyl)tetradecylamino]benzoic acid]: in assay [1], the “% Lowering of Serum Sterol” value was 60% and the “% Lowering of Serum Triglycerides” value is reported as 70%. Moreover, in assay [2], at 5.2 µg/mL the inhibition was 60%.
`CCOC(=O)c1ccc(NCCC[Si](C)(C)C)cc1` [Ethyl 4-[3-(trimethylsilyl)propylamino]benzoate]: in assay [1], the “% Lowering of Serum Sterol” value stood at 23% and the “% Lowering of Serum Triglycerides” value is 46%. The inhibition at 5.2 µg/mL in assay [2] came to 59%.
Take `CCOC(=O)c1ccc(NCCCCCCCCCCC[Si](C)(C)C)cc1` [Ethyl 4-[11-(trimethylsilyl)undecylamino]benzoate]: in assay [1], the “% Lowering of Serum Sterol” value is listed as 43% and the “% Lowering of Serum Triglycerides” value worked out at 22%. For the same compound, at 5.2 µg/mL the inhibition in assay [2] was 17%.
In the same order, the values of `CCOC(=O)c1ccc(NCCCCCCCCCCCCCC[Si](C)(C)C)cc1` [Ethyl 4-[14-(trimethylsilyl)tetradecylamino]benzoate] are 47%, 38% and 50%.
With `C[Si](C)(C)CCCNc1ccc(C(=O)[O-])cc1.[Na+]` [Sodium 4-[3-(trimethylsilyl)propylamino]benzoate], in assay [1], the “% Lowering of Serum Sterol” value is on record as 36% and the “% Lowering of Serum Triglycerides” value is 23%. The “% Inhibition (ACAT)” value in assay [2] was found to be 23%.
Consider `C[Si](C)(C)CCCCCCCCCCCNc1ccc(C(=O)[O-])cc1.[Na+]` [Sodium 4-[11-(trimethylsilyl)undecylamino]benzoate], for which, in assay [1], the “% Lowering of Serum Sterol” value worked out at 52% and the “% Lowering of Serum Triglycerides” value is reported as 54%. Moreover, the “% Inhibition (ACAT)” value in assay [2] is 56%.
For `C[Si](C)(C)CCCCCCCCCCCCCCNc1ccc(C(=O)[O-])cc1.[Na+]` [Sodium 4-[14-(trimethylsilyl)tetradecylamino]benzoate] the same measures were 61%, 78% and 62%.

The values above are taken from patent US4670421A, “Antiatherosclerotic silanes” (American Cyanamid Company, priority 1982, dated 1987).
